Data: publication PMC5042776 (Molecular Medicine Reports, 2016)
Converted amounts (≈) assume the structure as drawn. Where two headings read alike, the source gives them in different places. Marks after values point to notes of the source that are not given here.

Columns and labels:
Cytotoxicity assay = assay type: cell-based, canine; conditions: dog, MDCK cells
[1] = system: A/shenzhen/203/2001 (H3N2 subtype); assay: microbe, parasite or virus in culture; assay type: cell-based, influenza A virus; conditions: for SI (H3N2): CC50/IC50; for IC50: Influenza A virus, H3N2, MDCK, 72 h, read-out: IC50 (H3N2)
[2] = system: influenza A/PR/8/34 virus (H1N1 subtype); assay: microbe, parasite or virus in culture; assay type: cell-based; conditions: for SI (H1N1): CC50/IC50; for IC50: Influenza A virus, H1N1|PR/8, MDCK, 72 h, read-out: IC50 (H1N1)
influenza A virus (IAV) [3] = assay: IAV-induced acute lung injury in mice; assay type: in vivo, ICR mice
[4] = system: Toll-like receptor 7 (TLR7) signaling pathway; assay type: in vivo, ICR mice
[5] = system: serum IFN-β, IL-6, TNF-α, IL-1β; assay type: in vivo, ICR mice; conditions: after 5 days of treatment
influenza A virus (IAV) [6] = assay type: in vivo, ICR mice
[7] = 10 mg/kg intragastric once daily 5 days
[8] = 20 mg/kg intragastric once daily 5 days
[9] = 40 mg/kg intragastric once daily 5 days
[10] = 50 mg/kg intragastric once daily 5 days

## C=C1CCC[C@]2(C)C[C@]3(O)OC(=O)C(C)=C3C[C@@H]12 [Atractylenolide III, atractylenolide III]
Cytotoxicity assay
  CC50 at 3 days: 191 µg/mL (≈ 770 µM)
[1]
  SI (H3N2): 6.7
  IC50: 28.6 µg/mL (≈ 115 µM)
[2]
  SI (H1N1): 7.8
  IC50: 24.4 µg/mL (≈ 98.3 µM)

## C=C1CCC[C@]2(C)Cc3occ(C)c3C[C@@H]12 [Atractylon, atractylon]
Influenza A virus (IAV) [3]; [7]
  Inhibitory rate (lung index): 27.5%
  Lung index: 17.43±4.16 ^a mg/g
  Viral load (lung): 4.79±0.84 ^b ×10^6 copies
Influenza A virus (IAV) [3]; [8]
  Inhibitory rate (lung index): 58.8%
  Lung index: 13.08±4.54 ^b mg/g
  Viral load (lung): 2.56±0.72 ^b ×10^6 copies
Influenza A virus (IAV) [3]; [9]
  Inhibitory rate (lung index): 74.5%
  Lung index: 10.90±3.76 ^b mg/g
  Viral load (lung): 0.36±0.15 ^b ×10^6 copies
Influenza A virus (IAV) [3]; 10–40 mg/kg, H&E staining
  histological damage of lung: improved
Cytotoxicity assay
  CC50 at 3 days: 261 µg/mL (≈ 1210 µM)
[1]
  SI (H3N2): 27.8
  IC50: 9.4 µg/mL (≈ 43.5 µM)
[4]; compared with model control group, P<0.01
  mRNA expressions of TLR7, MyD88, TRAF6 and IFN-β in lung tissue: obviously upregulated
[4]; mouse, in vivo
  NF-κB p65 protein expression in lung tissue: downregulated
[2]
  SI (H1N1): 29.4
  IC50: 8.9 µg/mL (≈ 41.1 µM)
[2]; H1N1 and H3N2
  SI values relative to those of ribavirin: approximately 3 fold
[5]; 10 mg/kg
  IFN-β (serum): 25.8 ± 2.87 pg/mL
  IL-1β (serum): 17.2±1.35 ^b pg/ml
  IL-6 (serum): 19.5±2.76 ^b pg/ml
  TNF-α (serum): 16.2±2.27 ^a pg/ml
[5]; 20 mg/kg
  IFN-β (serum): 29.4±3.27 ^a pg/ml
  IL-1β (serum): 16.5±1.17 ^b pg/ml
  IL-6 (serum): 17.4±1.11 ^b pg/ml
  TNF-α (serum): 11.8±1.94 ^b pg/ml
[5]; 40 mg/kg
  IFN-β (serum): 30.8±3.31 ^b pg/ml
  IL-1β (serum): 13.4±0.74 ^b pg/ml
  IL-6 (serum): 12.8±1.16 ^b pg/ml
  TNF-α (serum): 9.20±0.77 ^b pg/ml
Influenza A virus (IAV) [6]; [7]
  Life prolong rate: 17.7%
  MDD ± SD (mean day to death): 9.3±3.6 ^a day
  Survival rate: 30.0%
  Survived/total: 6/20
Influenza A virus (IAV) [6]; [8]
  Life prolong rate: 41.8%
  MDD ± SD (mean day to death): 11.2±3.3 ^a day
  Survival rate: 55.0%
  Survived/total: 11/20
Influenza A virus (IAV) [6]; [9]
  Life prolong rate: 57.0%
  MDD ± SD (mean day to death): 12.4±2.6 ^a day
  Survival rate: 70.0%
  Survived/total: 14/20

## NC(=O)c1ncn([C@@H]2O[C@H](CO)[C@@H](O)[C@H]2O)n1 [Ribavirin, reference compound]
Influenza A virus (IAV) [3]; [10]
  Inhibitory rate (lung index): 61.7%
  Lung index: 12.68±3.30 ^b mg/g
  Viral load (lung): 1.38±0.56 ^b ×10^6 copies
Cytotoxicity assay
  CC50 at 3 days: 116 µg/mL (≈ 476 µM)
[1]
  SI (H3N2): 10.9
  IC50: 10.7 µg/mL (≈ 43.8 µM)
[2]
  SI (H1N1): 8.2
  IC50: 14.2 µg/mL (≈ 58.1 µM)
[5]; 50 mg/kg
  IFN-β (serum): 23.3 ± 2.79 pg/mL
  IL-1β (serum): 21.6 ± 3.36 pg/mL
  IL-6 (serum): 18.5±5.99 ^b pg/ml
  TNF-α (serum): 13.4±1.54 ^b pg/ml
Influenza A virus (IAV) [6]; [10]
  Life prolong rate: 40.5%
  MDD ± SD (mean day to death): 11.1±3.1 ^a day
  Survival rate: 50.0%
  Survived/total: 10/20
